# Results published in US6518289B1 (Pfizer, Inc., priority 1997, dated 2003).
# Where a name gives a salt, the structure may show the parent alone.
# How the values were obtained:
# [1] = test system: DBA2 audiogenic seizure; assay: DBA2 audiogenic seizure model
# [2] = test system: carrageenan induced hyperalgesia; assay: carrageenan induced hyperalgesia assay (Pain Model)
# [3] = 30 mg/kg orally in the rat, at 1 hour
# [4] = 30 mg/kg orally in the rat, at 2 hours
SMILES,"2 Hours (second column pair, group head not given) [1]",Pain Model % MPE 1 Hour [2],Pain Model % MPE 2 Hours [2],"1 Hour (second column pair, group head not given) [1]",also measured
CS(=O)(=O)NCCC1(CN)CCCCC1 [N-[2-1-Aminomethyl-cyclohexyl)-ethyl]-methanesulfonamide hydrochloride],0,0.3 % MPE,−0.9 % MPE,,
"NCC1(CC(=O)O)CCCCC1 [Gabapentin, 1-(aminomethyl)-cyclohexaneacetic acid, reference compound]",100,49.9 % MPE,19.9 % MPE,100,"response in the DBA2 audiogenic seizure model ([1]; 10 mg/kg orally, result in words): no significant response; protection ([1]; 30 mg/kg, 2 hours postdose): 100%; increase of paw withdrawal latency [2, 3]: 49.9%; increase of paw withdrawal latency [2, 4]: 19.9%"
Cl.NCC1(Cc2noc(=O)[nH]2)CCCCC1,40,80.6 % MPE,76.1 % MPE,20,"duration of antihyperalgesic effect compared with gabapentin ([2]; 30 mg/kg orally in the rat): antihyperalgesic effect of longer duration than gabapentin; increase of paw withdrawal latency [2, 3]: 80.6%; increase of paw withdrawal latency [2, 4]: 76%; activity in the carrageenan induced hyperalgesia assay ([2]; result in words): active"
"Cl.NCC1(Cc2noc(=S)[nH]2)CCCCC1 [3-(1-Aminomethyl-cyclohexylmethyl)-4H-[1,2,4]oxadiazole-5-thione; hydrochloride]",0,,,0,melting point: 210 to 212 °C
CS(=O)(=O)NCCC1(CN)CCCCC1 (as salt: hydrochloride) [N-[2-1-Aminomethyl-cyclohexyl)-ethyl]-methanesulfonamide hydrochloride],,,,,melting point: 196 to 199 °C
Cl.NCC1(Cc2nnn[nH]2)CCCCC1 [C-[1-(1H-Tetrazol-5-ylmethyl)-cyclohexyl)-methylamine hydrochloride],100,,,60,"protection ([1]; 10 mg/kg oral dosing, 1 hour postdose): 60%; protection ([1]; 10 mg/kg oral dosing, 2 hours postdose): 100%; protection ([1]; 10 mg/kg oral dosing, 4 hours postdose): 100%; protection ([1]; 10 mg/kg oral dosing, 6 hours postdose): 80%"
CC(C)(C)C(=O)NCCC1(CN)CCCCC1 [N-[2-(1-Aminomethyl-cyclohexyl)-ethyl]-t-butylamide],0,1.6 % MPE,−4.8 % MPE,,
